According to patent publication US5162328A, “N-[3-[2-(1H-imidazol-1-yl)ethoxy]phenyl]-4-(2-thienyl)-2-pyrimidinamine and pharmacologically acceptable salts” (American Cyanamid Company, priority 1991, dated 1992):
Read-outs that look alike come from different tables or passages of the source.

Assay: Pharmacokinetics in dogs (plasma concentration by HPLC)
Assay type: in vivo, dog (beagle)
Conditions: dog, plasma, po, 2 mg/kg/day; for concentration at 0.5 h / concentration at 1 h / concentration at 2 h / concentration at 4 h / AUC(0-t) / Cmax / Tmax / half-life / AUC(0-inf): 2 mg/kg/day PO; for AUC(0-inf): read-out: AUCO- (to infinite time)
Procedure: Since dogs are used in toxicology studies of antiasthma compounds, this species is chosen for pharmacokinetic evaluations. Use of the dog permits the pharmacokinetic comparison of 2 or more compounds in the same test animal, an evaluation which could not be conveniently performed in a smaller species. For each test compound, normal dogs are given a dose of 2.0 mg/kg/day for 5 consecutive days. There is a washout period of 1 month between the study of each of the test compounds in the same four dogs. Each test compound is administered as a solution of 5 mg/ml in either 0.05 or 0.1N HCl which is dispensed into a gelatin capsule immediately prior to dosage.
Heparinized blood samples are obtained from each animal on the first, third and fifth day of dosage at 0.5, 1.0, 2.0, 4.0, 7.0, 12.0 and 24.0 hours after the dose. The samples are centrifuged immediately to obtain plasma which is frozen until analyzed.
Analysis of plasma is performed using High Performance Liquid Chromatography (HPLC). The analytical procedure is essentially identical for each compound. The internal standard used for N-[3-[2-(1H-imidazol-1-yl)ethoxy]phenyl]-4-(2-thienyl)2-pyrimidinamine is 2-chloro-11-(4-methyl-1-piperazinyl)dibenz[b,f][1,4]oxazepine succinate, while for 2-methyl-N^4 -[4-(4-pyridinyl)-2-pyrimidinyl]-1,4-benzenediamine dihydrochloride and N-[4-[2-(diethylamino)ethoxy]phenyl]-4-(4-pyridinyl)-2-pyrimidnamine dihydrochloride the internal standard is 7-ethoxy-coumarin. In a typical procedure, a 0.4 ml volume of acetonitrile containing internal standard is added a 0.2 ml volume of serum. The sample is mixed by vortexing and centrifuged. The clear protein free supernatent fluid is decanted into a clean tube and evaporated to dryness. The dry residue is dissolved in 0.2 ml of HPLC mobile phase and 50 ul of this solution injected. Peaks corresponding to the test compound being measured and to the internal standard compound are quantitated by their absorption of ultraviolet light at 280 nm. Each set of analytical samples is accompanied by the analysis of a group of standard dog plasma samples prepared to contain amounts of the compound being measured which encompasses the concentration range of the samples.
Four normal beagle dogs weighing between 9.2 and 10.2 Kg are used in the study.

## Cc1cc(Nc2nccc(-c3ccncc3)n2)ccc1N.Cl.Cl [Compound 2, 2-methyl-N^4-[4-(4-pyridinyl)-2-pyrimidinyl]-1,4-benzenediamine dihydrochloride, reference compound]
Dog 1, day 1, 0.5 h
  concentration at 0.5 h: 512 ng/mL
Dog 1, day 1, 1 h
  concentration at 1 h: 233 ng/mL
Dog 1, day 1, 2 h
  concentration at 2 h: 55 ng/mL
Dog 1, day 1, 4 h
  concentration at 4 h: < 30 ng/mL
Dog 1, day 1
  AUC(0-t): 458 ng·h/mL
  Cmax: 512 ng/mL
  Tmax: 30 min
  half-life: 28.2 min
  AUC(0-inf): 520 ng·h/mL
Dog 1, day 3, 0.5 h
  concentration at 0.5 h: 375 ng/mL
Dog 1, day 3, 1 h
  concentration at 1 h: 295 ng/mL
Dog 1, day 3, 2 h
  concentration at 2 h: 122 ng/mL
Dog 1, day 3, 4 h
  concentration at 4 h: < 30 ng/mL
Dog 1, day 3
  AUC(0-t): 470 ng·h/mL
  Cmax: 375 ng/mL
  Tmax: 30 min
  half-life: 54 min
  AUC(0-inf): 602 ng·h/mL
Dog 1, day 5, 0.5 h
  concentration at 0.5 h: 120 ng/mL
Dog 1, day 5, 1 h
  concentration at 1 h: 277 ng/mL
Dog 1, day 5, 2 h
  concentration at 2 h: 50 ng/mL
Dog 1, day 5, 4 h
  concentration at 4 h: < 30 ng/mL
Dog 1, day 5
  AUC(0-t): 293 ng·h/mL
  Cmax: 277 ng/mL
  Tmax: 60 min
  AUC(0-inf): 349 ng·h/mL
Dog 2, day 1, 0.5 h
  concentration at 0.5 h: 438 ng/mL
Dog 2, day 1, 1 h
  concentration at 1 h: 210 ng/mL
Dog 2, day 1, 2 h
  concentration at 2 h: 58 ng/mL
Dog 2, day 1, 4 h
  concentration at 4 h: < 30 ng/mL
Dog 2, day 1
  AUC(0-t): 406 ng·h/mL
  Cmax: 438 ng/mL
  Tmax: 30 min
  half-life: 31.2 min
  AUC(0-inf): 471 ng·h/mL
Dog 2, day 3, 0.5 h
  concentration at 0.5 h: 260 ng/mL
Dog 2, day 3, 1 h
  concentration at 1 h: 78 ng/mL
Dog 2, day 3, 2 h
  concentration at 2 h: < 30 ng/mL
Dog 2, day 3, 4 h
  concentration at 4 h: < 30 ng/mL
Dog 2, day 3
  AUC(0-t): 293 ng·h/mL
  Cmax: 260 ng/mL
  Tmax: 30 min
  AUC(0-inf): 380 ng·h/mL
Dog 2, day 5, 0.5 h
  concentration at 0.5 h: 350 ng/mL
Dog 2, day 5, 1 h
  concentration at 1 h: 58 ng/mL
Dog 2, day 5, 2 h
  concentration at 2 h: < 30 ng/mL
Dog 2, day 5, 4 h
  concentration at 4 h: < 30 ng/mL
Dog 2, day 5
  AUC(0-t): 190 ng·h/mL
  Cmax: 350 ng/mL
  Tmax: 30 min
  AUC(0-inf): 255 ng·h/mL
Dog 3, day 1, 0.5 h
  concentration at 0.5 h: 605 ng/mL
Dog 3, day 1, 1 h
  concentration at 1 h: 234 ng/mL
Dog 3, day 1, 2 h
  concentration at 2 h: 184 ng/mL
Dog 3, day 1, 4 h
  concentration at 4 h: < 30 ng/mL
Dog 3, day 1
  AUC(0-t): 570 ng·h/mL
  Cmax: 605 ng/mL
  Tmax: 30 min
  half-life: 58.2 min
  AUC(0-inf): 776 ng·h/mL
Dog 3, day 3, 0.5 h
  concentration at 0.5 h: 387 ng/mL
Dog 3, day 3, 1 h
  concentration at 1 h: 284 ng/mL
Dog 3, day 3, 2 h
  concentration at 2 h: 141 ng/mL
Dog 3, day 3, 4 h
  concentration at 4 h: < 30 ng/mL
Dog 3, day 3
  AUC(0-t): 477 ng·h/mL
  Cmax: 387 ng/mL
  Tmax: 30 min
  half-life: 61.2 min
  AUC(0-inf): 635 ng·h/mL
Dog 3, day 5, 0.5 h
  concentration at 0.5 h: 105 ng/mL
Dog 3, day 5, 1 h
  concentration at 1 h: 289 ng/mL
Dog 3, day 5, 2 h
  concentration at 2 h: < 30 ng/mL
Dog 3, day 5, 4 h
  concentration at 4 h: < 30 ng/mL
Dog 3, day 5
  AUC(0-t): 125 ng·h/mL
  Cmax: 289 ng/mL
  Tmax: 60 min
  AUC(0-inf): 449 ng·h/mL
Dog 4, day 1, 0.5 h
  concentration at 0.5 h: 482 ng/mL
Dog 4, day 1, 1 h
  concentration at 1 h: 206 ng/mL
Dog 4, day 1, 2 h
  concentration at 2 h: < 30 ng/mL
Dog 4, day 1, 4 h
  concentration at 4 h: < 30 ng/mL
Dog 4, day 1
  AUC(0-t): 399 ng·h/mL
  Cmax: 482 ng/mL
  Tmax: 30 min
  AUC(0-inf): 630 ng·h/mL
Dog 4, day 3, 0.5 h
  concentration at 0.5 h: 283 ng/mL
Dog 4, day 3, 1 h
  concentration at 1 h: 44 ng/mL
Dog 4, day 3, 2 h
  concentration at 2 h: < 30 ng/mL
Dog 4, day 3, 4 h
  concentration at 4 h: < 30 ng/mL
Dog 4, day 3
  AUC(0-t): 175 ng·h/mL
  Cmax: 283 ng/mL
  Tmax: 30 min
  AUC(0-inf): 224 ng·h/mL
Dog 4, day 5, 0.5 h
  concentration at 0.5 h: 420 ng/mL
Dog 4, day 5, 1 h
  concentration at 1 h: < 30 ng/mL
Dog 4, day 5, 2 h
  concentration at 2 h: < 30 ng/mL
Dog 4, day 5, 4 h
  concentration at 4 h: < 30 ng/mL
Dog 4, day 5
  AUC(0-t): 105 ng·h/mL
  Cmax: 420 ng/mL
  Tmax: 30 min
  AUC(0-inf): 575 ng·h/mL
Mean of 4 dogs, day 1, 0.5 h
  concentration at 0.5 h: 509 ng/mL
Mean of 4 dogs, day 1, 1 h
  concentration at 1 h: 221 ng/mL
Mean of 4 dogs, day 1, 2 h
  concentration at 2 h: 74 ng/mL
Mean of 4 dogs, day 1, 4 h
  concentration at 4 h: < 30 ng/mL
Mean of 4 dogs, day 3, 0.5 h
  concentration at 0.5 h: 326 ng/mL
Mean of 4 dogs, day 3, 1 h
  concentration at 1 h: 175 ng/mL
Mean of 4 dogs, day 3, 2 h
  concentration at 2 h: 66 ng/mL
Mean of 4 dogs, day 3, 4 h
  concentration at 4 h: < 30 ng/mL
Mean of 4 dogs, day 5, 0.5 h
  concentration at 0.5 h: 249 ng/mL
Mean of 4 dogs, day 5, 1 h
  concentration at 1 h: 156 ng/mL
Mean of 4 dogs, day 5, 2 h
  concentration at 2 h: < 30 ng/mL
Mean of 4 dogs, day 5, 4 h
  concentration at 4 h: < 30 ng/mL
Mean, day 1
  AUC(0-t): 458 ng·h/mL
  Cmax: 509 ng/mL
  Tmax: 30 min
  half-life: 39 min
  AUC(0-inf): 599 ng·h/mL
Mean, day 3
  AUC(0-t): 354 ng·h/mL
  Cmax: 326 ng/mL
  Tmax: 30 min
  half-life: 57.6 min
  AUC(0-inf): 460 ng·h/mL
Mean, day 5
  AUC(0-t): 178 ng·h/mL
  Cmax: 334 ng/mL
  Tmax: 45 min
  AUC(0-inf): 407 ng·h/mL
Derived from mean of half-life values, read-out: elimination constant (converted)
  k el: 0.000248 s⁻¹
